Values after ≈ are worked out from the molar mass of the structure shown. Where a name gives a salt, the structure may show the parent alone. Read-outs that look alike come from different tables or passages of the source. Where a SMILES comes first, the peptide text is derived from it.
What was measured:
SARS-CoV-2 [1] = test system: SARS-CoV-2
[2] = test system: virus-host endosomal acidification; assay type: cell-based
A(H1N1)pdm09 virus [3] = assay type: cell-based
SARS-CoV-2 [4] = assay type: binding
in vitro [5] = settings: African green monkey
SARS-CoV [6] = assay type: binding
parainfluenza 3 (Para-3) = assay type: cell-based; settings: 24 h post-infection
rhinovirus [7] = test system: rhinovirus
H1N1 HA1 protein = H1N1 HA1 protein (Influenza A virus, UniProt C3W5S1)
Chain of H1N1 HA1 protein (C3W5S1 18-344 limits assumed): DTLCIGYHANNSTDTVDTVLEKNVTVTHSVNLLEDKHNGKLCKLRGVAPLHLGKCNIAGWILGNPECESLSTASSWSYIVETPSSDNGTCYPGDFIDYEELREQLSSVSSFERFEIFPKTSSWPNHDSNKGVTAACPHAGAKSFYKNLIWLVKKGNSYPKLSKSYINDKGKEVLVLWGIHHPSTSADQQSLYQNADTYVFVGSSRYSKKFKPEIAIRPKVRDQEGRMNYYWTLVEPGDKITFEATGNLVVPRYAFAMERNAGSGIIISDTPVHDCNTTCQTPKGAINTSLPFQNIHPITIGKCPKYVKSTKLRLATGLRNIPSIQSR

[8] = test system: endosomal acidification in MDCK cells; assay type: cell-based, canine
A(H7N9) virus [9] = assay type: binding
A(H1N1)pdm09 virus [10] = assay type: binding
MERS-CoV S protein = MERS-CoV S protein (Middle East respiratory syndrome-related coronavirus, UniProt K9N5Q8)
Chain of MERS-CoV S protein (K9N5Q8 18-1353 limits assumed): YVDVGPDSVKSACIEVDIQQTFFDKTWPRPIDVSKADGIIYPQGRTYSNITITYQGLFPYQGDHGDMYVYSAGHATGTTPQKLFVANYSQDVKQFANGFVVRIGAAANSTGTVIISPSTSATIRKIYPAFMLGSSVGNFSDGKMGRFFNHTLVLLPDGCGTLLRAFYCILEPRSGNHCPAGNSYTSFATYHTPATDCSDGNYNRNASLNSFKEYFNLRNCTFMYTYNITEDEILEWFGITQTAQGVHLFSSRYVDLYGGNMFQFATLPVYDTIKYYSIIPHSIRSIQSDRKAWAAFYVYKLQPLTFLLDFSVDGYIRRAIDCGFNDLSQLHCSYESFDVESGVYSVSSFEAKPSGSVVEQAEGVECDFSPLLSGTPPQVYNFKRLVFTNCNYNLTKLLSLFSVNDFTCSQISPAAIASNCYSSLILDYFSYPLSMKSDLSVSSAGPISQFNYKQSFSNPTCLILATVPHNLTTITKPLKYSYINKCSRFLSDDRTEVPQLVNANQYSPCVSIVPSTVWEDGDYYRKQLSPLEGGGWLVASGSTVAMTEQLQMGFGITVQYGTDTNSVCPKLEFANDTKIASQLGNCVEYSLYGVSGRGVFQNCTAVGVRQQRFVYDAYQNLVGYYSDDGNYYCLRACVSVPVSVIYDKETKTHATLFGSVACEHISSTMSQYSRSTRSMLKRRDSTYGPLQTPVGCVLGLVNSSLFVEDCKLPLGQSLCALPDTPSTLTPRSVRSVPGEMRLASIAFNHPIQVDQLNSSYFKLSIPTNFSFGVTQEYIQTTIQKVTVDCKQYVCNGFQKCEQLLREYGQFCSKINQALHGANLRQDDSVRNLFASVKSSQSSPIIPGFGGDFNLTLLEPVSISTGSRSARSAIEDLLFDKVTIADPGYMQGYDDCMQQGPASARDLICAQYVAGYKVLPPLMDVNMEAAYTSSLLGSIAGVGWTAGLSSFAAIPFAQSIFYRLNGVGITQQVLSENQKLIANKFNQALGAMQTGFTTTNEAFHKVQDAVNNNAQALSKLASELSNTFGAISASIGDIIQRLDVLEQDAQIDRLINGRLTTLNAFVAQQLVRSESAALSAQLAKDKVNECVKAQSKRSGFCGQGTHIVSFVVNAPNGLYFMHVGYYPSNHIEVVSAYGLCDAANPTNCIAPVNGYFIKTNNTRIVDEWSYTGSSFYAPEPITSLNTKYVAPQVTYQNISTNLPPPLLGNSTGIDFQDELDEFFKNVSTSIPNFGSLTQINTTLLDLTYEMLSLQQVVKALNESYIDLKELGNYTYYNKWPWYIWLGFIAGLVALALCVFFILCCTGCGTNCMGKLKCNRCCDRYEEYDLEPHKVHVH

in vitro [11] = settings: dog
rhinovirus [12] = test system: rhinovirus; remark: listed apart in the source
in vitro [13] = settings: human
MERS-CoV [14] = test system: MERS-CoV
rhinovirus [15] = assay type: binding; settings: peptide coated on ELISA plate, bound virus by RT-qPCR
A(H7N9) virus [16] = test system: A(H7N9) virus
MERS-CoV [17] = assay type: binding
SARS-CoV-2 [18] = experiment: microbe, parasite or virus in culture; assay type: cell-based
[19] = in vivo; cited from earlier work
[20] = test system: spike-ACE2 mediated cell fusion; assay type: cell-based, human
SARS-CoV-2 [21] = settings: cited from earlier work
SARS-CoV-2 [22] = test system: SARS-CoV-2; design: species or system hamsters; settings: in vivo
SARS-CoV [23] = test system: SARS-CoV; design: species or system mice; settings: in vivo
SARS-CoV-2 [24] = settings: cited from earlier work; remark: listed apart in the source
SARS-CoV [25] = assay type: cell-based
SARS-CoV-2 [26] = assay type: cell-based

## CC[C@H](C)[C@H](NC(=O)[C@H](C)NC(=O)CNC(=O)[C@@H](N)CC(N)=O)C(=O)N[C@@H](CS)C(=O)N[C@@H](Cc1c[nH]c2ccccc12)C(=O)NCC(=O)N1CCC[C@H]1C(=O)N[C@@H](CS)C(=O)N1CCC[C@H]1C(=O)N[C@H](C(=O)N[C@@H](C)C(=O)N[C@@H](Cc1ccccc1)C(=O)N[C@@H](CCCNC(=N)N)C(=O)N[C@@H](CCC(N)=O)C(=O)N[C@H](C(=O)NCC(=O)N[C@@H](CC(N)=O)C(=O)N[C@@H](CS)C(=O)NCC(=O)N[C@@H](Cc1c[nH]cn1)C(=O)N[C@@H](Cc1ccccc1)C(=O)N[C@@H](CCCCN)C(=O)N[C@H](C(=O)N[C@@H](CCCNC(=N)N)C(=O)N[C@@H](CS)C(=O)N[C@@H](CS)C(=O)N[C@@H](CCCCN)C(=O)N[C@H](C(=O)N[C@@H](CCCNC(=N)N)C(=O)O)[C@@H](C)CC)C(C)C)[C@@H](C)CC)[C@@H](C)O [P9, reference compound]
SARS-CoV-2 [1]
  IC50 against SARS-CoV-2: 2.4 µg/mL (≈ 0.719 µM)
Parainfluenza virus 3
  IC50 against parainfluenza virus 3: > 25.0 µg/mL

## CC[C@H](C)[C@H](NC(=O)[C@H](C)NC(=O)CNC(=O)[C@@H](N)CC(N)=O)C(=O)N[C@@H](CS)C(=O)N[C@@H](Cc1c[nH]c2ccccc12)C(=O)NCC(=O)N1CCC[C@H]1C(=O)N[C@@H](CS)C(=O)N1CCC[C@H]1C(=O)N[C@H](C(=O)N[C@@H](C)C(=O)N[C@@H](Cc1ccccc1)C(=O)N[C@@H](CCCNC(=N)N)C(=O)N[C@@H](CCC(N)=O)C(=O)N[C@H](C(=O)NCC(=O)N[C@@H](CC(N)=O)C(=O)N[C@@H](CS)C(=O)NCC(=O)N[C@@H](CCCNC(=N)N)C(=O)N[C@@H](Cc1ccccc1)C(=O)N[C@@H](CCCNC(=N)N)C(=O)N[C@H](C(=O)N[C@@H](CCCNC(=N)N)C(=O)N[C@@H](CS)C(=O)N[C@@H](CS)C(=O)N[C@@H](CCCNC(=N)N)C(=O)N[C@H](C(=O)N[C@@H](CCCNC(=N)N)C(=O)O)[C@@H](C)CC)C(C)C)[C@@H](C)CC)[C@@H](C)O [P9R] (H-NGAICWGPCPTAFRQIGNCGRFRVRCCRIR-OH)
[2]
  inhibition of virus-host endosomal acidification: could efficiently inhibit
A(H1N1)pdm09 virus [3]
  inhibition against A(H1N1)pdm09 virus compared with P9: significantly stronger inhibition
SARS-CoV-2 [4]
  binding to SARS-CoV-2: could efficiently bind
In vitro [5]
  CC50 at 24 h: > 300 µg/mL
SARS-CoV [6]
  binding to SARS-CoV: could also bind
Parainfluenza 3 (Para-3)
  parainfluenza 3 viral RNA in LLC-MK2 cells: inhibits parainfluenza 3 in LLC-MK2 cells
Rhinovirus [7]
  inhibition of viral replication, rhinovirus: > 20 fold
H1N1 HA1 protein
  binding to viral proteins: H1N1 HA1 protein: could also bind
[8]
  inhibition of endosomal acidification (no-virus endosomes): could more significantly inhibit endosomal acidification
SARS-CoV-2 [1]
  IC50 against SARS-CoV-2: 0.9 µg/mL (≈ 0.264 µM)
A(H7N9) virus [9]
  binding to A(H7N9) virus: could also bind
A(H1N1)pdm09 virus [10]
  binding to A(H1N1)pdm09 virus: could efficiently bind
MERS-CoV S protein
  binding to viral proteins: MERS-CoV S protein: could also bind
In vitro [11]
  CC50 at 24 h: > 300 µg/mL
Rhinovirus [12]
  inhibition against rhinovirus compared with P9: significantly stronger inhibition
In vitro [13]
  CC50 at 24 h: > 300 µg/mL
MERS-CoV [14]
  inhibition against MERS-CoV compared with P9: significantly stronger inhibition
Rhinovirus [15]
  binding to rhinovirus: could also bind
A(H7N9) virus [16]
  inhibition against A(H7N9) virus compared with P9: significantly stronger inhibition
MERS-CoV [17]
  binding to MERS-CoV: could also bind

## CCOC(=O)c1c(CSc2ccccc2)n(C)c2cc(Br)c(O)c(CN(C)C)c12 [arbidol]
SARS-CoV-2 [18]; Severe acute respiratory syndrome coronavirus 2, Vero C1008, 24 h, read-out: normal IC50 of arbidol against SARS-CoV-2
  IC50: 3.6 µg/mL (≈ 7.54 µM)
[19]
  peak serum concentration: lower than 2 μg ml-1

## CO/C1=C\C(C)=C\[C@@H](C)[C@@H](O)[C@@H](C)C/C(C)=C/C=C/[C@H](OC)[C@@H]([C@@H](C)[C@@H](O)[C@H](C)[C@@]2(O)C[C@@H](O)[C@H](C)[C@@H](C(C)C)O2)OC1=O [bafilomycin A1, reference compound]
[2]
  inhibition of virus-host endosomal acidification: could efficiently inhibit
[20]
  spike-ACE2 mediated cell membrane fusion: could inhibit spike-ACE2 mediated cell membrane fusion

## CN(C)C(=O)COC(=O)Cc1ccc(OC(=O)c2ccc(NC(=N)N)cc2)cc1 [camostat, Camostat mesylate]
SARS-CoV-2 [21]
  SARS-CoV-2 replication in Calu-3 cells: could significantly inhibit SARS-CoV-2 replication in Calu-3 cells
SARS-CoV-2 [22]
  SARS-CoV-2 replication in hamster lungs: could not significantly inhibit SARS-CoV-2 replication in hamsters
SARS-CoV [23]
  SARS-CoV replication in mouse lungs: could not inhibit viral replication
SARS-CoV-2 [24]
  SARS-CoV-2 replication in Vero-E6 cells: could not inhibit SARS-CoV-2 replication

## CCN(CC)CCCC(C)Nc1ccnc2cc(Cl)ccc12 (stereo not shown) [chloroquine]
SARS-CoV-2 [21]
  SARS-CoV-2 replication in Calu-3 cells: did not inhibit SARS-CoV-2 replication in Calu-3 cells
SARS-CoV [25]
  enhancement of antiviral activity of arbidol against SARS-CoV: could significantly enhance the antiviral activity of arbidol
SARS-CoV-2 [18]
  SARS-CoV-2 replication in Vero-E6 cells: could significantly inhibit SARS-CoV-2 replication in Vero-E6 cells
  enhancement of antiviral activity of arbidol against SARS-CoV-2: could significantly enhance the antiviral activity of arbidol
SARS-CoV-2 [22]
  SARS-CoV-2 replication in hamster lungs: could not significantly inhibit SARS-CoV-2 replication in hamsters
SARS-CoV-2 [26]
  SARS-CoV-2 replication in Calu-3 cells: not in Calu-3 cells
SARS-CoV [23]
  SARS-CoV replication in mouse lungs: could not inhibit SARS-CoV replication in mouse lungs
